Experimental data as given in patent publication US20260335495A1, “SYNERGISTIC ACTIVITY OF NOVEL COMPOUNDS AGAINST PLANKTONIC AND BIOFILM CELLS OF CLINICALLY RELEVANT PATHOGENS” (priority 2021, published 2026).
Structures can show the parent of a compound that is named as a salt.

Legend:
[1] = test system: Escherichia coli ON29; assay: MIC and checkerboard (FICI), planktonic cells; type: cell-based
Protocol: (§1) The MIC was determined by the micro broth dilution method in 96-well plates. […] A 10 μL containing 1×10^5 bacterial cells or 2×10^3 fungal cells were added to each well. The inoculated plates were covered with a lid, sealed with Parafilm, and incubated for 24 h at 37 °C with slight rocking on a tilting platform shaker. After incubation, the optical density at 600 nm (OD 600) of the cultures in each well was measured using an xMark™ Microplate Absorbance Spectrophotometer (Bio-Rad). The MIC was defined as the lowest concentration of antimicrobial compound at which the culture OD600 values was similar to uninoculated control wells. MBCs and MFCs were determined by transferring 100 μL from each well with no apparent growth onto appropriate agar plates, followed by incubation for 24 h at 37 °C.
(§2) The concentrations of antimicrobials used were based on previously determined MIC values. […] Microtiter plates were incubated at 37 °C for 24 h, and the results were analyzed. Each test was performed in duplicate and included a growth control without the addition of any antimicrobials.

[2] = test system: Stenotrophomonas maltophilia ON17; assay: MIC and checkerboard (FICI), planktonic cells; type: cell-based
Protocol: as §1, §2

[3] = test system: S. epidermidis SK9; assay: MIC and checkerboard (FICI), planktonic cells; type: cell-based
Protocol: as §1, §2

[4] = test system: C. albicans ON47; assay: MIC and checkerboard (FICI), planktonic cells; type: cell-based
Protocol: as §1, §2

[5] = test system: E. coli SK2; assay: MIC and checkerboard (FICI), planktonic cells; type: cell-based
Protocol: as §1, §2

[6] = test system: Proteus mirabilis ON153; assay: MIC and checkerboard (FICI), planktonic cells; type: cell-based
Protocol: as §1, §2

[7] = test system: Candida albicans SK4b; assay: MIC and checkerboard (FICI), planktonic cells; type: cell-based
Protocol: as §1, §2

[8] = test system: Serratia marcescens SK2; assay: MIC and checkerboard (FICI), planktonic cells; type: cell-based
Protocol: as §1, §2

[9] = test system: Pseudomonas aeruginosa SK1; assay: MIC and checkerboard (FICI), planktonic cells; type: cell-based
Protocol: as §1, §2

[10] = test system: Staphylococcus epidermidis ON170; assay: MIC and checkerboard (FICI), planktonic cells; type: cell-based
Protocol: as §1, §2

[11] = test system: Staphylococcus aureus ON89; assay: MIC and checkerboard (FICI), planktonic cells; type: cell-based
Protocol: as §1, §2

[12] = test system: bacterial and fungal biofilms; assay: Rapid eradication of 48-h-old biofilms within 2 h exposure; type: cell-based, bacterial and fungal strains; details: at the MBEC alone, 48-h-old biofilm
Protocol: This example comprises performing biofilm growth as described above. After biofilm formation, control pegs (n=6) were removed and analyzed to determine the starting biofilm cell numbers via the drop dilution method. The 48-h old biofilms on the pegs were exposed to different concentrations of test antimicrobials, dissolved in an appropriate growth medium, for 2 hours to evaluate their efficacy alone and in combination. […] Following treatment, pegs were washed twice with sterile PBS, and the biofilm cells were dislodged into recovery medium and enumerated as described above.

[13] = test system: MRSA ON184; assay: MIC and checkerboard (FICI), planktonic cells; type: cell-based, methicillin-resistant S. aureus
Protocol: as §1, §2

[14] = test system: 12 test organisms; assay: MBC/MFC and FMCI, planktonic cells, summary over strains; type: cell-based, bacterial and fungal organisms
Protocol: as §1, §2

[15] = test system: preformed biofilms of test pathogens; assay: MBEC and FBEC index, 48 h old biofilms, summary over strains; type: cell-based, bacterial and fungal strains; details: alone: 4% tetrasodium EDTA, 50% ethanol, 100 μg/mL chlorhexidine HCl, 24 hours
Protocol: The evaluation of the biofilm cultivation cell composition was evaluated using an MBEC Assay® biofilm inoculator, consisting of a polystyrene lid with 96 downward-protruding pegs and a corresponding base used to grow biofilms. A standardized inoculum was diluted in an appropriate biofilm growth medium to achieve a viable cell count of 1.5×10^6 CFU/mL of bacterial cells or 5×10^5 CFU/mL of fungal cells. Then, 150 μL of this inoculum was transferred into each appropriate well, and the peg lids were inserted into the microtiter plates. The plates were sealed with Parafilm and were incubated at optimum temperature for 48 h with slight rocking for bacteria and shaking at 200 rpm for fungal strains. After incubation, the peg lid was removed from the base and rinsed twice with sterile phosphate-buffered saline (PBS) for 2 min to remove loosely attached non-sessile cells. Before the antimicrobial challenge, the pegs in column 1 (n=8) were considered as the biofilm growth control; these pegs were removed from the lids, placed into 200 μL of recovery medium, and analyzed for starting biofilm cell numbers as described below. […] After the antimicrobial challenge, the pegs were rinsed twice with sterile PBS for 2 min and placed into a new 96-well plate containing 200 μL of recovery medium. The recovery plates were sealed with Parafilm, and biofilm cells were dislodged from the pegs by sonication for 30 min with a Branson 3510 bath sonicator. The biofilm cells in the recovery medium were serially diluted, and a drop dilution assay was performed to enumerate the viable cells.
In step (4), microtiter plates are incubated at 37 °C for 24 h. then (6), after incubation, the bacterial and fungal cells were dislodged from the pegs into the recovery medium described above.
Three 10-μL aliquots, for a total of 30 μL from each well of recovery medium, were spotted on MH agar plates and incubated for 24 hours at 37 °C. […] The FBEC determination is a modification of the FICI. […]

[16] = test system: human erythrocytes and neutrophils; details: concentrations above 2%, in vitro; cited from earlier work
[17] = overuse; cited from earlier work
[18] = cited from earlier work
[19] = test system: broad range of microbial species; details: even at high concentrations; cited from earlier work
[20] = test system: biofilms; details: cited from earlier work
[21] = test system: S. aureus; details: cited from earlier work

## [H]/N=C(\N/C(=N/[H])NCCCCCCNC(=N)NC(=N)Nc1ccc(Cl)cc1)Nc1ccc(Cl)cc1 [CH, chlorhexidine HCl]
[1]; Escherichia coli, ON29, alone, 24 h, 37 °C, read-out: MIC
  MIC: 0.4 µg/mL
[1]; TE + CH in combination
  MIC in combination: 0.2 µg/mL
[2]; Stenotrophomonas maltophilia, ON17, 24 h
  MIC: 0.8 µg/mL
[2]; TE + CH in combination
  MIC in combination: 0.2 µg/mL
[3]; Staphylococcus epidermidis, SK9, alone, 24 h, 37 °C, read-out: MIC
  MIC: 0.1 µg/mL
[3]; TE + CH in combination
  MIC in combination: 0.025 µg/mL
[4]; Candida albicans, ON47, 24 h
  MIC: 1.6 µg/mL
[4]; TE + CH in combination
  MIC in combination: 0.8 µg/mL
[5]; Escherichia coli, SK2, 24 h
  MIC: 0.4 µg/mL
[5]; TE + CH in combination
  MIC in combination: 0.1 µg/mL
[6]; Proteus mirabilis, ON153, alone, 24 h, 37 °C, read-out: MIC
  MIC: 50 µg/mL
[6]; TE + CH in combination
  MIC in combination: 0.8 µg/mL
[7]; Candida albicans, SK4B, 24 h
  MIC: 1.6 µg/mL
[7]; TE + CH in combination
  MIC in combination: 0.8 µg/mL
[8]; Serratia marcescens, SK2, 24 h
  MIC: 12.5 µg/mL
[8]; TE + CH in combination
  MIC in combination: 1.5 µg/mL
[9]; Pseudomonas aeruginosa, SK1, 24 h
  MIC: 1.6 µg/mL
[9]; TE + CH in combination
  MIC in combination: 0.8 µg/mL
[10]; Staphylococcus epidermidis, ON170, alone, 24 h, 37 °C, read-out: MIC
  MIC: 0.1 µg/mL
[10]; TE + CH in combination
  MIC in combination: 0.05 µg/mL
[11]; Staphylococcus aureus, ON89, alone, 24 h, 37 °C, read-out: MIC
  MIC: 0.1 µg/mL
[11]; TE + CH in combination
  MIC in combination: 0.1 µg/mL
[12]
  biofilm eradication: failed to eradicate the preformed biofilms
[13]; Staphylococcus aureus, MRSA, alone, 24 h, 37 °C, read-out: MIC
  MIC: 0.2 µg/mL
[13]; TE + CH in combination
  MIC in combination: 0.2 µg/mL
[14]
  microbicidal activity: broad-spectrum microbicidal activity
[15]
  eradication of all established biofilms: able to eradicate all established biofilms

## [H]/N=C(\N/C(=N/[H])NCCCCCCNC(=N)NC(=N)Nc1ccc(Cl)cc1)Nc1ccc(Cl)cc1 [Chlorhexidine, 1,6-bis(4-chloro-phenylbiguanido)hexane]
[16]
  effect on human erythrocytes and neutrophils: fewer human erythrocytes and neutrophils in vitro
[17]
  reduced susceptibility and cross-resistance: reduced susceptibility from its overuse and a cross-resistance to colistin
[18]; in vivo
  mammalian toxicity: low mammalian toxicity
[18]; infants
  chemical burns: cause chemical burns in infants
[18]; perioperative and clinical care settings
  allergenicity: significant allergen

## O=C(O)CN(CCN(CC(=O)O)CC(=O)O)CC(=O)O [disodium EDTA]
[19]
  antimicrobial activity alone: not a potent antimicrobial agent (i.e., does not kill cells)

## Heparin
[20]
  inhibition or eradication of biofilms: neither of these agents has the potential to inhibit or eradicate biofilms
[21]
  colonization of catheter surfaces: promote the colonization of S. aureus on catheter surfaces
